Measurements published in the kinase profiling compilation of Christmann-Franck et al. (2016).
Values joined by “and” are separate entries in the source; they are usually repeats but may differ in a detail not shown here. Identical values can stand only once.

What was measured:
Assay in all cases: radiometric filter-binding kinase assay, Kinase HotSpot
Settings in all cases: compound 0.5 µM; ATP 10 µM
[1] = target: EPHB2 (human) (UniProt P29323)
[2] = target: BRAF (human) (UniProt P15056)
[3] = target: EPHA6 (human) (UniProt Q9UF33)
[4] = target: PHKG2 (human) (UniProt P15735)
[5] = target: RPS6KB2 (human) (UniProt Q9UBS0)
[6] = target: CAMK2B (human) (UniProt Q13554)
[7] = target: TGFBR2 (human) (UniProt P37173)
[8] = target: YES1 (human) (UniProt P07947)
[9] = target: CSNK1A1 (human) (UniProt P48729)
[10] = target: STK38 (human) (UniProt Q15208)
[11] = target: CSNK2A1 (human) (UniProt P68400)
[12] = target: MARK1 (human) (UniProt Q9P0L2)
[13] = target: MAPKAPK5 (human) (UniProt Q8IW41)
[14] = target: PDPK1 (human) (UniProt O15530)
[15] = target: RET (human) (UniProt P07949)
[16] = target: TAOK2 (human) (UniProt Q9UL54)
[17] = target: MYO3B (human) (UniProt Q8WXR4)
[18] = target: LCK (human) (UniProt P06239)
[19] = system: SGK1 (human), O00141 [S422D]
[20] = target: CHEK1 (human) (UniProt O14757)
[21] = target: DYRK3 (human) (UniProt O43781)
[22] = target: PRKCA (human) (UniProt P17252)
[23] = target: STK16 (human) (UniProt O75716)
[24] = target: PAK6 (human) (UniProt Q9NQU5)
[25] = target: JAK1 JH1 catalytic (human) (UniProt P23458)
[26] = target: MAPK14 (human) (UniProt Q16539)
[27] = target: PRKACG (human) (UniProt P22612)
[28] = target: PRKD3 (human) (UniProt O94806)
[29] = target: CLK4 (human) (UniProt Q9HAZ1)
[30] = target: KDR (human) (UniProt P35968)
[31] = target: TYK2 JH1 catalytic (human) (UniProt P29597)
[32] = target: CDK3 CCNE1 (human) (UniProt Q00526+P24864)
[33] = target: PTK2 (human) (UniProt Q05397)
[34] = target: TLK2 (human) (UniProt Q86UE8)
[35] = target: PRKG1 (human) (UniProt Q13976)
[36] = target: KIT (human) (UniProt P10721)
[37] = target: MKNK2 (human) (UniProt Q9HBH9)
[38] = target: RPS6KB1 (human) (UniProt P23443)
[39] = target: DYRK1A (human) (UniProt Q13627)
[40] = target: ULK3 (human) (UniProt Q6PHR2)

Chain of MKNK2 (human) (Q9HBH9 whole entry, looked up): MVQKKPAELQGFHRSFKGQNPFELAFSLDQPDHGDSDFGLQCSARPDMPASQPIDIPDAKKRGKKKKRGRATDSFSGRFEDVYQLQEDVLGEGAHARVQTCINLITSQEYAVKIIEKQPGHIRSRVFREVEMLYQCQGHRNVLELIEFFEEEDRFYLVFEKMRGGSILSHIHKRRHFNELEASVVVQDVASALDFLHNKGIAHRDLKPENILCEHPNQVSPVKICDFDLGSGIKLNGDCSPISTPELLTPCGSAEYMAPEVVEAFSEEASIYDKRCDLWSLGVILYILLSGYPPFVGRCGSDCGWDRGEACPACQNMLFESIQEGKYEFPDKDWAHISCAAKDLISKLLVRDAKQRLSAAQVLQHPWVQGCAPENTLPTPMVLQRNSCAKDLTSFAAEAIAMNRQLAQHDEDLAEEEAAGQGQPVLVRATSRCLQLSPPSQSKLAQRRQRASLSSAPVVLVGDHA
Chain of RPS6KB2 (human) (Q9UBS0 whole entry, looked up): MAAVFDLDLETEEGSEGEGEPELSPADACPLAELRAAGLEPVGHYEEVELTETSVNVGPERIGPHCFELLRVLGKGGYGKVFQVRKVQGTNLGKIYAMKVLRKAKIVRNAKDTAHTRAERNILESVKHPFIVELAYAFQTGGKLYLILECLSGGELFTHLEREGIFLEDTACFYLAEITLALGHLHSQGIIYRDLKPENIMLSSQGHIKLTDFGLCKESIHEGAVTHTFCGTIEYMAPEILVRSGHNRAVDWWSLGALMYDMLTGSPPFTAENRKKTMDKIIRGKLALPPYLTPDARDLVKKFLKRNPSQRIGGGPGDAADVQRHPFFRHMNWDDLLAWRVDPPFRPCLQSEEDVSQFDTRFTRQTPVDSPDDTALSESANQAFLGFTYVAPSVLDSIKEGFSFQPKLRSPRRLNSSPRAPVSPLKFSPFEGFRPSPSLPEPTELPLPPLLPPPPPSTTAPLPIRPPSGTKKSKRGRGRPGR
Chain of YES1 (human) (P07947 whole entry, looked up): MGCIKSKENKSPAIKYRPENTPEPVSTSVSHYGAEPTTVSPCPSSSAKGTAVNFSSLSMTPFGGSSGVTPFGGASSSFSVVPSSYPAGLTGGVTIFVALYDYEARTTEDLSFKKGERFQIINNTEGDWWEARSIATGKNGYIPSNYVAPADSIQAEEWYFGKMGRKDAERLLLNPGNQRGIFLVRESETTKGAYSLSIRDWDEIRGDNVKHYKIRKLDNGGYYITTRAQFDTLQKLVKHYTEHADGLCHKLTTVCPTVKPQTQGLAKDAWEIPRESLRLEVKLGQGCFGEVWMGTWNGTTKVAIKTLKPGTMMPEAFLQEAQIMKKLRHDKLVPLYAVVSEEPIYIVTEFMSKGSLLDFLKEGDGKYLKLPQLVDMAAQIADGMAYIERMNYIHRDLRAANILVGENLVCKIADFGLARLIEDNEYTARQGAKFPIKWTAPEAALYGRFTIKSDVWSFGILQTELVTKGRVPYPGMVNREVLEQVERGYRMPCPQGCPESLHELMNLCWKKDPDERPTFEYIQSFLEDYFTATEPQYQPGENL
Chain of KDR (human) (P35968 whole entry, looked up): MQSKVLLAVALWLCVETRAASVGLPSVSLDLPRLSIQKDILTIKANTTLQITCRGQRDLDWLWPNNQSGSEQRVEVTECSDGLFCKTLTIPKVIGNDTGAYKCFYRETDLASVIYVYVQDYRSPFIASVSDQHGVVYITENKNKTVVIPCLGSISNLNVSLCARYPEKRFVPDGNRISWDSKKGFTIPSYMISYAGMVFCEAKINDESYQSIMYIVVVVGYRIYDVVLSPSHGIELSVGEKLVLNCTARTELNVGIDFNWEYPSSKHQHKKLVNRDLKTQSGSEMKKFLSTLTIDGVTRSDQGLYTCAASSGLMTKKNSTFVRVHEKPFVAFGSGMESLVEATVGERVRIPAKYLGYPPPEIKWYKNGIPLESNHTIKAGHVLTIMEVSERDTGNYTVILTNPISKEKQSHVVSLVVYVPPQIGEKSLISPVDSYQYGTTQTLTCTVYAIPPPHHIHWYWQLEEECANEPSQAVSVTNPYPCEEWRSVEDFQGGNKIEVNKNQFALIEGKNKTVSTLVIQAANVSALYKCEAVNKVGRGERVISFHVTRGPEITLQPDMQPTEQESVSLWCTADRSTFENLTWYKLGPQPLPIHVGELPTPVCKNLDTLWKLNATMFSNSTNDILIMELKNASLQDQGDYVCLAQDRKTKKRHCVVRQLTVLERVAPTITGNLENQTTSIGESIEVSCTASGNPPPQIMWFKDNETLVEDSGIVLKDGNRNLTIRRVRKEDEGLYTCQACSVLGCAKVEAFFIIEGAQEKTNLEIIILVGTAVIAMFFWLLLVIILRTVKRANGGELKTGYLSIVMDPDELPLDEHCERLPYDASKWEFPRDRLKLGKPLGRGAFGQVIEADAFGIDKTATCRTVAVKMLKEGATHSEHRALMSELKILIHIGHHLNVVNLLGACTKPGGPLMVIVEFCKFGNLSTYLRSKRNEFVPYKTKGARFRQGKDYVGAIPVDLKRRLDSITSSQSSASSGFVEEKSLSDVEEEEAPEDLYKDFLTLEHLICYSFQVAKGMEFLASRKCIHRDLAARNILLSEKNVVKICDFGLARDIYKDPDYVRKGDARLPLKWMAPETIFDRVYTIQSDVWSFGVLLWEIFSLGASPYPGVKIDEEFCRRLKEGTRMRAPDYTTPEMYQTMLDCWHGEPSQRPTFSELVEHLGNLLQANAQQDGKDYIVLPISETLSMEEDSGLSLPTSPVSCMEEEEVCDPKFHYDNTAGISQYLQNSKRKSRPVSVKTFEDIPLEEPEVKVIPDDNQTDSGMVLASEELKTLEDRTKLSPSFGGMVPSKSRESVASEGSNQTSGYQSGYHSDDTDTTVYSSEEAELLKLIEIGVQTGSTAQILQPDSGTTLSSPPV
Chain of MARK1 (human) (Q9P0L2 whole entry, looked up): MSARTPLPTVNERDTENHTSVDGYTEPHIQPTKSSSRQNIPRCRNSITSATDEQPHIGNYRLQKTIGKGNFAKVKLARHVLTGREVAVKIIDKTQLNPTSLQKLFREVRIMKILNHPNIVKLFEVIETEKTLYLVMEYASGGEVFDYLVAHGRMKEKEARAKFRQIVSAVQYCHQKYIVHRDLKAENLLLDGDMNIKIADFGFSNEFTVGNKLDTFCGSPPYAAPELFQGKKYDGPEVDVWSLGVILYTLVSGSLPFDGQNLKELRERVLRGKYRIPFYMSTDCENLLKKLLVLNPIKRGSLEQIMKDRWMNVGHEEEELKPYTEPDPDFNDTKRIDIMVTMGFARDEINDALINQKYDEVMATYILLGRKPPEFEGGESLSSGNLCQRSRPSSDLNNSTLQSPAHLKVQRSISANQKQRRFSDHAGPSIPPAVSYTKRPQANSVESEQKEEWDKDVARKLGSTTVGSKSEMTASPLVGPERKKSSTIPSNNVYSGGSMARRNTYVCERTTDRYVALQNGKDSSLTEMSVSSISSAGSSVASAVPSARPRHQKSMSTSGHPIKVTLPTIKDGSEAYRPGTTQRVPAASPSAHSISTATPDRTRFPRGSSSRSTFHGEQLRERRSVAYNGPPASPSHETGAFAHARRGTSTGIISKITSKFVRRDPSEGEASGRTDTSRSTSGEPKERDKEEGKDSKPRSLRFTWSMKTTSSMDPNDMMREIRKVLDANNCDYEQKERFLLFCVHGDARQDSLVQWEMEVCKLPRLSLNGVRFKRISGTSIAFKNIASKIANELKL
Chain of TAOK2 (human) (Q9UL54 whole entry, looked up): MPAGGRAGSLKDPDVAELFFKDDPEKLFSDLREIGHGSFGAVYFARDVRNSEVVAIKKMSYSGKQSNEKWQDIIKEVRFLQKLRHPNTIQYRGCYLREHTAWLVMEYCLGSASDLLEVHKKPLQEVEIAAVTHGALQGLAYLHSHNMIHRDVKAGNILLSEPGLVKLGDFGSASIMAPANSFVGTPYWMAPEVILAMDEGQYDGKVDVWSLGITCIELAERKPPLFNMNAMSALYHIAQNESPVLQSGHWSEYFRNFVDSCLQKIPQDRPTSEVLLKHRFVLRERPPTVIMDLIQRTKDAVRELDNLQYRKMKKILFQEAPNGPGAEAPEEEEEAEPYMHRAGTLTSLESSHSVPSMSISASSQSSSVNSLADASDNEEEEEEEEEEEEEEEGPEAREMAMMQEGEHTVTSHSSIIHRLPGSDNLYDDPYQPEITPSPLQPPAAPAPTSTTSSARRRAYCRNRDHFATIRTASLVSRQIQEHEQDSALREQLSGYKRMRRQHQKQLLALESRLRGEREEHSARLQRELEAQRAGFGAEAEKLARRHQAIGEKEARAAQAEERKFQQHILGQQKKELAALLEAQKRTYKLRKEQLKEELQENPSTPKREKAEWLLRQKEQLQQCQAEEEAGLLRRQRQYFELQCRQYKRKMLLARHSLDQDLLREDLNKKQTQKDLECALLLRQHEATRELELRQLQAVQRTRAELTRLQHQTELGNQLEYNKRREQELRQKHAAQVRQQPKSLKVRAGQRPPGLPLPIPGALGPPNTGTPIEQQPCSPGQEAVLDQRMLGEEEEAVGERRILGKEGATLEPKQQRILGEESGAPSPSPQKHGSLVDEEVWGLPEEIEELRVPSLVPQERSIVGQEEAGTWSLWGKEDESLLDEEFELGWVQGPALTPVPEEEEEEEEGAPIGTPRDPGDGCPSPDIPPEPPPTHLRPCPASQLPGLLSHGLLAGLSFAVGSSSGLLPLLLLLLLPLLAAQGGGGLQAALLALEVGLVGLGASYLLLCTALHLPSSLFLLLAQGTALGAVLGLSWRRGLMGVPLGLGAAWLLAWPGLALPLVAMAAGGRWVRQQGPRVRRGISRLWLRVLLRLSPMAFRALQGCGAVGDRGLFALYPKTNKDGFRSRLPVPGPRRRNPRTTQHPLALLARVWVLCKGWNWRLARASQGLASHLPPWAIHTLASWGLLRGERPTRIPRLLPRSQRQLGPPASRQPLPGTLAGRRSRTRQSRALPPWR

With N#Cc1c(NC(=O)c2cccc3ccccc23)sc2c1CCCC2 as the compound, how does the residual activity [1] read?
Its residual activity is 97.5%.

And the residual activity [2]?
The residual activity was 95.2%.

What about the residual activity [3] of the same compound?
Its residual activity is 93.4%.

And the residual activity [4]?
Its residual activity is 101%.

And the residual activity [5]?
The residual activity was 100%.

And the residual activity [6]?
Its residual activity is 101%.

And the residual activity [7]?
The residual activity was 104%.

And the residual activity [8]?
Its residual activity is 104%.

And the residual activity [9]?
The residual activity was 91.1%.

What about the residual activity [10] of the same compound?
Its residual activity is 97.7%.

What about the residual activity [11] of the same compound?
Its residual activity is 101%.

What about the residual activity [12] of the same compound?
The residual activity was 100%.

What about the residual activity [13] of the same compound?
Its residual activity is 96.6%.

What about the residual activity [14] of the same compound?
The residual activity was 92.1%.

And the residual activity [15]?
Its residual activity is 105%.

What about the residual activity [16] of the same compound?
Its residual activity is 99.8%.

What about the residual activity [17] of the same compound?
The residual activity was 107%.

And the residual activity [18]?
The residual activity was 102%.

What about the residual activity [19] of the same compound?
Its residual activity is 108%.

What about the residual activity [20] of the same compound?
Its residual activity is 104%.

And the residual activity [21]?
The residual activity was 128%.

What about the residual activity [22] of the same compound?
The residual activity was 99.5%.

What about the residual activity [23] of the same compound?
Its residual activity is 98.5%.

And the residual activity [24]?
The residual activity was 101%.

What about the residual activity [25] of the same compound?
The residual activity was 108%.

What about the residual activity [26] of the same compound?
The residual activity was 98.1%.

And the residual activity [27]?
The residual activity was 111%.

And the residual activity [28]?
Its residual activity is 97.7%.

What about the residual activity [29] of the same compound?
Its residual activity is 92%.

What about the residual activity [30] of the same compound?
The residual activity was 100%.

What about the residual activity [31] of the same compound?
Its residual activity is 100%.

What about the residual activity [32] of the same compound?
Its residual activity is 99.2%.

And the residual activity [33]?
Its residual activity is 101%.

And the residual activity [34]?
The residual activity was 98.9%.

What about the residual activity [35] of the same compound?
Its residual activity is 101% and 94.6%.

What about the residual activity [36] of the same compound?
The residual activity was 84.2%.

And the residual activity [37]?
The residual activity was 106%.

And the residual activity [38]?
Its residual activity is 105%.

And the residual activity [39]?
The residual activity was 96.7%.

For COc1cc2c(cc1OC)-c1[nH]nc(Nc3cccc(F)c3)c1C2, which residual activity [1] is on record?
Its residual activity is 94.8%.

What about the residual activity [2] of the same compound?
The residual activity was 93.8%.

What about the residual activity [3] of the same compound?
The residual activity was 82.7%.

What about the residual activity [4] of the same compound?
Its residual activity is 121%.

And the residual activity [5]?
Its residual activity is 100%.

And the residual activity [6]?
The residual activity was 101%.

And the residual activity [40]?
The residual activity was 96.5%.

What about the residual activity [7] of the same compound?
Its residual activity is 100%.

What about the residual activity [8] of the same compound?
Its residual activity is 61.3%.

What about the residual activity [10] of the same compound?
The residual activity was 113%.

And the residual activity [11]?
Its residual activity is 96.6%.

What about the residual activity [12] of the same compound?
The residual activity was 96.1%.

And the residual activity [13]?
The residual activity was 82.3%.

What about the residual activity [14] of the same compound?
The residual activity was 95.9%.

And the residual activity [15]?
Its residual activity is 83.6%.

And the residual activity [16]?
The residual activity was 97.1%.

What about the residual activity [17] of the same compound?
The residual activity was 107%.

What about the residual activity [19] of the same compound?
The residual activity was 99.8%.

And the residual activity [20]?
Its residual activity is 92.4%.

What about the residual activity [21] of the same compound?
The residual activity was 84.4%.

What about the residual activity [22] of the same compound?
The residual activity was 99.2%.

And the residual activity [23]?
Its residual activity is 96.8%.

What about the residual activity [24] of the same compound?
Its residual activity is 84.8%.

And the residual activity [25]?
The residual activity was 97.6%.

What about the residual activity [26] of the same compound?
The residual activity was 94.3%.

What about the residual activity [27] of the same compound?
Its residual activity is 102%.

And the residual activity [28]?
Its residual activity is 93.1%.

And the residual activity [29]?
Its residual activity is 77.7%.

What about the residual activity [30] of the same compound?
The residual activity was 98.7%.

And the residual activity [31]?
The residual activity was 81.3%.

What about the residual activity [32] of the same compound?
Its residual activity is 95.4%.

What about the residual activity [33] of the same compound?
Its residual activity is 88.2%.

And the residual activity [34]?
Its residual activity is 103%.

And the residual activity [35]?
Its residual activity is 104% and 95.2%.

What about the residual activity [36] of the same compound?
Its residual activity is 27.9%.

What about the residual activity [37] of the same compound?
The residual activity was 91.5%.

And the residual activity [38]?
The residual activity was 99.1%.

What about the residual activity [39] of the same compound?
Its residual activity is 90.3%.

For COc1cc2c(N3CCN(C(=O)Nc4ccc(OC(C)C)cc4)CC3)ncnc2cc1OCCCN1CCCCC1, which residual activity [1] is on record?
Its residual activity is 97.6%.

And the residual activity [3]?
The residual activity was 103%.

What about the residual activity [4] of the same compound?
The residual activity was 98.9%.

What about the residual activity [5] of the same compound?
The residual activity was 102%.

And the residual activity [6]?
The residual activity was 99.9%.

And the residual activity [40]?
Its residual activity is 101%.

What about the residual activity [7] of the same compound?
The residual activity was 102%.

And the residual activity [8]?
The residual activity was 86.6%.

And the residual activity [9]?
The residual activity was 101%.

And the residual activity [10]?
Its residual activity is 99.1%.

What about the residual activity [11] of the same compound?
The residual activity was 102%.

And the residual activity [12]?
The residual activity was 89.9%.

And the residual activity [13]?
Its residual activity is 91.9%.

And the residual activity [14]?
Its residual activity is 96.8%.

What about the residual activity [15] of the same compound?
The residual activity was 91.5%.

What about the residual activity [16] of the same compound?
The residual activity was 102%.

What about the residual activity [17] of the same compound?
Its residual activity is 88.5%.

And the residual activity [18]?
Its residual activity is 87.1%.

What about the residual activity [19] of the same compound?
Its residual activity is 123%.

And the residual activity [20]?
Its residual activity is 108%.

And the residual activity [21]?
The residual activity was 109%.

And the residual activity [22]?
Its residual activity is 109%.

What about the residual activity [23] of the same compound?
Its residual activity is 103%.

What about the residual activity [24] of the same compound?
The residual activity was 101%.

What about the residual activity [25] of the same compound?
Its residual activity is 102%.

What about the residual activity [26] of the same compound?
The residual activity was 94.1%.

And the residual activity [27]?
The residual activity was 108%.

And the residual activity [28]?
The residual activity was 97.3%.

What about the residual activity [29] of the same compound?
The residual activity was 88.7%.

And the residual activity [30]?
Its residual activity is 106%.

And the residual activity [31]?
Its residual activity is 97.9%.

What about the residual activity [32] of the same compound?
Its residual activity is 90.6%.

And the residual activity [33]?
Its residual activity is 101%.

What about the residual activity [34] of the same compound?
The residual activity was 96.2%.

What about the residual activity [35] of the same compound?
Its residual activity is 102% and 82.5%.

What about the residual activity [36] of the same compound?
The residual activity was 45.1%.

And the residual activity [37]?
The residual activity was 99%.

What about the residual activity [38] of the same compound?
The residual activity was 107%.

What about the residual activity [39] of the same compound?
Its residual activity is 104%.
